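Briefly, cells in 96-well plates were exposed to five compound concentrations for 48 h, and endpoints were estimated by linear interpolation. At the GI50, growth is halved. TGI denotes the concentration required for complete inhibition of growth.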
How the values were obtained:
Assay in all cases: DTP human tumour cell line panel, 48 h
SK-OV-3 ovarian = tested on: SK-OV-3 ovarian
UO-31 renal = tested on: UO-31 renal
HL-60(TB) leukemia = tested on: HL-60(TB) leukemia
SK-MEL-28 melanoma = tested on: SK-MEL-28 melanoma
LOX IMVI melanoma = tested on: LOX IMVI melanoma
UACC-257 melanoma = tested on: UACC-257 melanoma
HCT-116 colon = tested on: HCT-116 colon
SNB-19 CNS = tested on: SNB-19 CNS
CAKI-1 renal = tested on: CAKI-1 renal
T-47D breast = tested on: T-47D breast

Compound	TGI (SK-OV-3 ovarian) [µM]	TGI (UO-31 renal) [µM]	TGI (HL-60(TB) leukemia) [µM]	TGI (SK-MEL-28 melanoma) [µM]	TGI (LOX IMVI melanoma) [µM]	TGI (UACC-257 melanoma) [µM]	TGI (HCT-116 colon) [µM]	TGI (SNB-19 CNS) [µM]	TGI (CAKI-1 renal) [µM]	TGI (T-47D breast) [µM]	GI50 (SK-OV-3 ovarian) [µM]	GI50 (T-47D breast) [µM]	GI50 (UO-31 renal) [µM]	GI50 (SK-MEL-28 melanoma) [µM]	GI50 (LOX IMVI melanoma) [µM]	GI50 (UACC-257 melanoma) [µM]	GI50 (HCT-116 colon) [µM]	GI50 (SNB-19 CNS) [µM]	GI50 (CAKI-1 renal) [µM]
CC(=O)Oc1ccc(C2COc3cc(OC(C)=O)c(OC(C)=O)cc3C2)cc1 (stereo not given)	38.7	59.4	20.3	34.2	> 55.5	34.9	33.9	> 100	27.3	–	–	–	–	–	–	–	–	–	–
C[C@]12CC[C@@H]3c4ccc(OC(=O)c5ccccc5)cc4CC[C@H]3[C@@H]1CC[C@@H]2Oc1c2ccccc2nc2ccccc12	> 50	> 50	40.4	22.3	15.6	38.6	18	15.5	21.6	–	–	–	–	–	–	–	–	–	–
CCO/C(O)=C(/C(=N)N1CCCC1)C(=O)Nc1cccc(C(F)(F)F)c1	> 100	–	> 100	> 100	> 100	> 100	> 100	> 100	> 100	> 100	–	–	–	–	–	–	–	–	–
OC12CC/C(=N/OCc3ccccc3)CC1c1ccccc12 (stereo not given)	> 100	> 100	> 100	> 100	> 100	> 100	> 100	> 100	> 100	–	–	–	–	–	–	–	–	–	–
CC(C)N(C)C(=O)C12C3C4C1C1C2C3C41C#N (stereo not given)	–	> 100	> 100	> 100	> 100	> 100	> 100	> 100	> 100	> 100	–	–	–	–	–	–	–	–	–
CCc1ccc2c(c1)CC1(C2)Cc2cc3c(cc2C1)C(=O)CC3 (stereo not given)	> 100	92.9	15.6	–	37	51.6	29.9	–	–	85	–	–	–	–	–	–	–	–	–
CC(=O)N1CCN(C23OC4(N5CCN(C(C)=O)CC5)C5C6CC(C7C6C4C72)C53)CC1 (stereo not given)	> 100	> 100	> 100	–	> 100	> 100	> 100	> 100	> 100	> 100	–	–	–	–	–	–	–	–	–
O=C(NCc1ccc(Cl)cc1)c1cc2sccc2nc1C(F)(F)F	> 100	> 100	–	> 100	–	> 100	> 100	51.7	> 100	> 100	–	–	–	–	–	–	–	–	–
O=c1[nH]nc(Cc2ccccc2)n1-n1cnnc1	> 100	> 100	–	> 100	> 100	> 100	> 100	> 100	–	–	–	–	–	–	–	–	–	–	–
Cc1ccc(S(=O)(=O)c2c(O)c3ccccc3n(C)c2=O)cc1	> 100	> 100	> 100	> 100	–	> 100	> 100	> 100	> 100	> 100	–	–	–	–	–	–	–	–	–
Nc1cc(N2CCCC2)nc(=O)n1Cc1ccccc1	–	–	> 100	–	> 100	> 100	> 100	> 100	> 100	–	–	–	–	–	–	–	–	–	–
Oc1ccc(CCc2cc(O)cc(O)c2)cc1	> 100	> 100	> 100	> 100	–	> 100	> 100	> 100	> 100	> 100	–	–	–	–	–	–	–	–	–
CCOc1cc(C2CC(c3ccc(NS(=O)(=O)c4cc([N+](=O)[O-])ccc4C)cc3)=NN2)ccc1O (stereo not given)	–	84	50.5	> 100	53	–	50.6	> 100	> 100	82.9	–	–	–	–	–	–	–	–	–
CN(Cc1cnc2nc(N)nc(N)c2n1)c1ccc(C(=O)NC(CCC(=O)NC(P(=O)(O)O)P(=O)(O)O)C(=O)O)cc1 (stereo not given)	–	> 100	> 100	> 100	> 100	> 100	> 100	27.6	29.8	> 100	–	–	–	–	–	–	–	–	–
CN(C)CCCOCCn1c2c(c3ccccc31)CCCC2	–	36.9	20.7	30.2	31.5	33.3	28.8	–	31.5	49.7	–	–	–	–	–	–	–	–	–
CC(=O)O[C@H]1C(=O)[C@@]2(C)[C@H]([C@H](OC(=O)c3ccccc3)[C@]3(O)C[C@H](OC(=O)[C@H](O)[C@@H](NC(=O)CC(C)(C)C)c4ccccc4)C(C)=C1C3(C)C)C1(OC(C)=O)CO[C@@H]1C[C@@H]2O (stereo not given in full)	> 10	> 10	–	> 10	> 10	> 10	> 3.34	> 10	> 10	> 10	–	–	–	–	–	–	–	–	–
c1ccc2c(Cc3nnc4sc(SSc5nn6c(Cc7c[nH]c8ccccc78)nnc6s5)nn34)c[nH]c2c1	> 100	46.7	75.7	> 100	–	> 100	29.4	> 100	62.6	> 100	–	–	–	–	–	–	–	–	–
COc1cc(C2SCC(=O)N2c2ccc(Oc3ccc(Cl)cc3)c(Cl)c2)cc(OC)c1OC (stereo not given)	33.6	91.3	–	35	36.8	33.3	35.5	> 100	33.6	27.5	–	–	–	–	–	–	–	–	–
COc1ccc(/C=C2\N=C(c3ccccc3)N(C3Nc4cc5c(cc4S3)NC(N3C(=O)/C(=C/c4ccc(OC)cc4)N=C3c3ccccc3)S5)C2=O)cc1 (stereo not given)	–	> 100	> 100	> 100	> 100	> 100	> 100	–	> 100	> 100	–	–	–	–	–	–	–	–	–
Cc1ccc(-c2n[nH]c(=O)[nH]2)cc1[N+](=O)[O-]	–	> 100	> 100	> 100	> 100	> 100	> 100	> 100	> 100	> 100	–	–	–	–	–	–	–	–	–
COC(=O)[C@@]12CCCC(=O)[C@@H]1[C@H]1CCCC[C@H]12	> 100	> 100	–	> 100	> 100	> 100	> 100	> 100	> 100	–	–	–	–	–	–	–	–	–	–
COc1cc(S(=O)(=O)Nc2ccc(C3=NNC(c4ccccc4)C3)cc2)ccc1F (stereo not given)	> 100	> 100	–	> 100	> 100	> 100	> 100	> 100	> 100	> 100	> 100	54.2	> 100	> 100	73.5	29.3	17.3	> 100	37.3
O=C(CNc1ccc(Cl)cc1Cl)NC1C=Cc2ccc(S(=O)(=O)Nc3ccc(Cl)cc3Cl)cc2C1=O (stereo not given)	> 100	> 100	> 100	> 100	> 100	> 100	> 100	> 100	> 100	–	–	–	–	–	–	–	–	–	–

Compound	TGI (SK-OV-3 ovarian) [µM]	TGI (UO-31 renal) [µM]	TGI (HL-60(TB) leukemia) [µM]	TGI (SK-MEL-28 melanoma) [µM]	TGI (LOX IMVI melanoma) [µM]	TGI (UACC-257 melanoma) [µM]	TGI (HCT-116 colon) [µM]	TGI (SNB-19 CNS) [µM]	TGI (CAKI-1 renal) [µM]	TGI (T-47D breast) [µM]	GI50 (SK-OV-3 ovarian) [µM]	GI50 (T-47D breast) [µM]	GI50 (UO-31 renal) [µM]	GI50 (SK-MEL-28 melanoma) [µM]	GI50 (LOX IMVI melanoma) [µM]	GI50 (UACC-257 melanoma) [µM]	GI50 (HCT-116 colon) [µM]	GI50 (SNB-19 CNS) [µM]	GI50 (CAKI-1 renal) [µM]
COc1ccc(C2C(C#N)=C(S)N(C3OC(CO)C(O)C(O)C3O)C(c3ccccc3)=C2C(C)=O)cc1 (stereo not given)	–	> 100	> 100	> 100	> 100	> 100	> 100	> 100	–	69.9	–	–	–	–	–	–	–	–	–
C=CC[C@@]1(C(=O)OC)[C@H](Sc2ccccc2)C1(C)C	> 100	> 100	45.8	> 100	–	96.9	> 100	> 100	> 100	> 100	–	–	–	–	–	–	–	–	–
Cc1sc2ccccc2[n+]1CCC(=O)O	> 100	–	29.8	> 100	> 100	> 100	> 100	> 100	> 100	> 100	–	–	–	–	–	–	–	–	–
O=C(NCCCNCCNC(=O)c1cc(-c2ccccc2)nc2ccccc12)c1cc(-c2ccccc2)nc2ccccc12	6.34	3.89	4.3	3.26	2.95	3.08	3.04	3.93	5.45	–	–	–	–	–	–	–	–	–	–
CSc1c(C#N)c2n(c3ccccc13)c1ccccc1[n+]2C	–	64.9	56.9	> 100	> 100	67.8	40.8	–	84.3	> 100	–	–	–	–	–	–	–	–	–
CC1(Cl)CC2C(CC1Sc1nnnn1-c1ccccc1)C2(C)C (stereo not given)	–	> 100	49.4	> 100	> 100	> 100	> 100	> 100	–	–	–	–	–	–	–	–	–	–	–
Cc1cc(C)n(CN(Cn2nc(C)cc2C)C2CCCCC2)n1	> 100	52.4	–	42.5	46.3	78.4	45.6	> 100	97.7	76.2	–	–	–	–	–	–	–	–	–
NCCCCNCCCNC(=O)c1nc(-c2csc(CCN)n2)sc1Cl	> 100	> 100	> 100	> 100	–	> 100	> 100	> 100	> 100	–	–	–	–	–	–	–	–	–	–
O=C1c2cccc3cccc(c23)C(=O)N1CCCNOCCONCCCN1C(=O)c2cccc3cccc(c23)C1=O	> 100	> 100	> 100	> 100	> 100	> 100	> 100	> 100	> 100	–	–	–	–	–	–	–	–	–	–
COC(=O)C1(Cc2ccccc2)Cc2ccccc2C1	> 100	55.9	45.8	> 100	88	65.6	49.8	–	65.4	90.8	–	–	–	–	–	–	–	–	–
CCCCOCn1c(=O)[nH]c(=O)c2cc(Br)ccc21	> 100	52.6	> 100	> 100	> 100	> 100	> 100	> 100	46.9	–	–	–	–	–	–	–	–	–	–
C[C@]12CC[C@H](O)CC1=CC[C@@H]1[C@@H]2CC[C@]2(C)/C(=N/OCCN3CCCC3)CC[C@@H]12	–	35.3	23	30.6	33.4	27.7	28.6	72.1	40.7	–	–	–	–	–	–	–	–	–	–
COc1ccccc1Nc1nc(NNC(=O)Cc2ccccc2)nc(NNC(=O)c2ccncc2)n1	> 10	–	> 10	> 10	> 10	> 10	–	–	> 10	> 10	–	–	–	–	–	–	–	–	–
COc1ccc2c(c1)/c(=C/c1ccc(N(C)C)cc1)c1cc(-c3ccccc3)[n+](C)n12	1.98	3.28	–	2.31	1.51	2.19	2.59	1.21	5.64	–	–	–	–	–	–	–	–	–	–
COc1cc2c(cc1OC)-c1c3c(cc4c1[C@@H](C2)N(C)CC4)OCO3	50.6	49.3	29.9	24.9	75	26	36.6	59.9	51.4	–	–	–	–	–	–	–	–	–	–
CC(=O)OC1[C@H]2c3cc4c(cc3CN3CCC(=C[C@@H]1O)C23)OCO4 (stereo not given in full)	> 100	> 100	> 100	> 100	> 100	> 100	–	> 100	–	–	–	–	–	–	–	–	–	–	–
C[n+]1c2ccccc2c(C(=O)Nc2ccc(S(=O)(=O)N=C(N)N)cc2)c2ccccc21	> 100	> 100	–	> 100	> 100	> 100	> 100	> 100	> 100	> 100	–	–	–	–	–	–	–	–	–
CCc1c(C)c(C#N)c(=S)n(C2OC(CO)C(O)C(O)C2O)c1C (stereo not given)	> 100	> 100	> 100	> 100	> 100	> 100	> 100	> 100	–	> 100	–	–	–	–	–	–	–	–	–
Clc1ccc(N=c2oc3ccccc3cc2-c2nc3ccccc3[nH]2)c(Cl)c1	> 100	> 100	> 100	–	> 100	> 100	> 100	> 100	> 100	> 100	–	–	–	–	–	–	–	–	–
CCOC(=O)C(/C=N\C(=S)Nc1ccc(OCC)cc1)=C(/O)c1ccccc1	> 100	–	> 100	> 100	> 100	> 100	> 100	> 100	> 100	> 100	–	–	–	–	–	–	–	–	–
COc1c2cc(C(C)(C)C)cc1Cc1cccc(c1O)Cc1cc(C(C)(C)C)cc(c1OC)Cc1cccc(c1O)Cc1cc(C(C)(C)C)cc(c1OC)Cc1cccc(c1O)C2	–	> 100	> 100	> 100	–	> 100	> 100	> 100	> 100	> 100	–	–	–	–	–	–	–	–	–
O=c1[nH]c(Nc2cccc(Cl)c2)nc2nc[nH]c12	> 100	> 100	> 100	–	> 100	> 100	> 100	> 100	> 100	> 100	–	–	–	–	–	–	–	–	–

From PubChem BioAssay (NCI)
